Read-outs that look alike come from different tables or passages of the source. Marks after values point to notes of the source that are not given here.
Tests used:
[1] = test system: HCT116; experiment: Cell colony formation assay, HCT116 cells; format: cell-based, human; settings: 72 hours drug exposure
Experimental: (§1) This example provides directions for growing cells and testing compounds of the invention for their effect on the growth of the cells. All cells were purchased from DCIDC Tumor Repository, NCI, NIH.
The cells were incubated in a CO2 incubator at 37° C. for 5 hours for attachment to the bottom of Petri dishes. Drugs were made fresh in medium at ten times the final concentration, and then 0.3 ml of this stock solution was added to the 2.7 ml of medium in the dish. The cells were then incubated with drugs for 72 hours at 37° C. At the end of the incubation the drug-containing media were decanted, the dishes were rinsed with 4 ml of Hank's Balance Salt Solution (HBSS), 5 ml of fresh medium was added, and the dishes were returned to the incubator for colony formation. The cell colonies were counted using colony counter after incubation for 7 days for HCT116 cells and PC-3 cells and 8 days for VM46 cells, respectively.

[2] = test system: PC-3; experiment: Cell colony formation assay, PC-3 cells; format: cell-based, human; settings: 72 hours drug exposure
Experimental: as §1
(§2) Four hundred cells (HCT 116, PC-3, NCI/ADR-RES: human breast cancer cells) or five hundred cells (VM46) were plated in 60 mm Petri dishes containing 2.7 ml of medium (modified McCoy's 5a medium) containing 10% fetal bovine serum and 100 units/ml penicillin and […] streptomycin. The cells were incubated in a CO2 incubator at 37° C. for 5 hours for attachment to the bottom of Petri dishes. Drugs were made fresh in medium at ten times the final concentration, and then 0.3 ml of this stock solution was added to the 2.7 ml of medium in the dish. The cells were then incubated with drugs for 72 hours at 37° C. At the end of the incubation the drug-containing media were decanted, the dishes were rinsed with 4 ml of Hank's Balance Salt Solution (HBSS), 5 ml of fresh medium was added, and the dishes were returned to the incubator for colony formation. The cell colonies were counted using colony counter after incubation for 7 days for HCT116 cells and PC-3 cells and 8 days for VM46 cells, respectively.
(§3) Values of ID50 (the drug concentration producing 50% inhibition of colony formation) may be determined for each tested compound. The directions described in this example may be used in other cells, such as DU-145.

[3] = test system: C3H/HeJ mice
Experimental: This example provides directions for performing in vivo toxicity tests of the compounds of the invention on C3H/HeJ mice.
Acute toxicities of the compounds of this invention are evaluated on C3H/HeJ mice (body weight 18-22 g). The MTD40 (maximum tolerated dose at day 40) values were determined by the standard procedure described by Gad and Chengelis (see, for example, “Acute Toxicology Testing,” 2nd Ed., Shayne O. Gad and Christopher P. Chengelis, pp. 186-195 (Academic Press)). In the consecutive type studies, 2 mice were dosed at low and moderate doses of 40 and 100 mg/kg. If no severe and irreversible toxicity (euthanasia is required) occurs at these doses, a new pair of animals was initiated at 180 mg/kg, which is 1.8 times higher than 100 mg/kg. Sequential dosages (about 3 doses on 3 pairs of animals, i.e. 2 mice for each drug dose) were increased by a factor of 1.8 until severe and irreversible toxicity (euthanasia is required) occurred. Then another pair of animals was initiated at the highest nonlethal dosage, and successive dosages were increased by a factor of 1.15. The result of this exercise was two dosages, one apparently nonlethal and the other lethal if severe and irreversible toxicity occurs and euthanasia is required, separated by a factor of 1.15. Six mice were dosed at each dosage. If no severe and irreversible toxicity occurred at the lower dosage and at least one with severe and irreversible toxicity occurred at the higher dose, then the lower dose was considered to be the MTD. The compounds of this invention were administered to C3H/HeJ mice by intraperitoneal injection. Drug toxicity was evaluated on mice checked daily for 45 days.

[4] = test system: VM46; experiment: Cell colony formation assay, VM46 cells; format: cell-based; settings: 72 hours drug exposure
Experimental: as §1, §2, §3

[5] = maximum tolerated dose at day 40, C3H/HeJ mice

Compound	In Vitro Efficacy: Survival (%) of HCT116 ([1]; 10 nM) [%]	In Vitro Efficacy: Survival (%) of HCT116 ([1]; 100 nM) [%]	In vitro efficacy: Survival (%) of cells line PC-3 ([2]; 1 nM) [%]	In vitro efficacy: Survival (%) of cells line PC-3 ([2]; 5 nM) [%]	In Vivo Toxicity MTD40 (ip, mg/kg) in C3H/Hej Mice [3, 5]	In Vitro Efficacy: Survival (%) of HCT116 ([1]; 1 nM) [%]	In vitro efficacy: Survival (%) of cells line VM46 ([4]; 1 nM) [%]	In vitro efficacy: Survival (%) of cells line VM46 ([4]; 10 nM) [%]	In Vivo Toxicity MTD40 (ip, mg/kg) in C3H/Hej Mice ([3]; mouse, in vivo) [mg/kg]
CCc1c2c(nc3ccc(OC(=O)N4CCC(N5CCCCC5)CC4)cc13)-c1cc3c(c(=O)n1C2)COC(=O)[C@]3(O)CC [CPT 11, 7-ethyl-10[4-(1-piperidino)-1-piperidino]carbonyloxy CPT, reference compound]	100	90.52	–	–	–	–	–	–	–
CC[C@@]1(O)C(=O)OCc2c1cc1n(c2=O)Cc2cc3ccccc3nc2-1 [CPT, (S)-4-ethyl-4-hydroxy-1H-pyrano-[3′,4′:6,7]indolizino[1,2-b]quinoline-3,14(4H,12H)-dione, reference compound]	73.72	–	93.85	33.09	<20** mg/kg	100	77.64	0	–
CCC1(OC(=O)COc2ccc(OC)cc2)C(=O)OCc2c1cc1n(c2=O)Cc2cc3ccccc3nc2-1 (centres unmarked) [Example 000314, Camptothecin-20-O-ester of 4-methoxyphenoxyacetic acid]	–	0	–	–	>150 mg/kg	–	–	–	–
CCCCOCC(=O)OC1(CC)C(=O)OCc2c1cc1n(c2=O)Cc2cc3ccccc3nc2-1 (centres unmarked) [Example 000316, Camptothecin-20-O-ester of butyloxyacetic acid]	0	0	85.72	54.79	<150 mg/kg	100	77.50	0	–
CCC1(OC(=O)COc2ccc(C(C)C)cc2)C(=O)OCc2c1cc1n(c2=O)Cc2cc3ccccc3nc2-1 (centres unmarked) [Example 000418, Camptothecin-20-O-ester of 4-isopropylphenoxyacetic acid]	0	0	100	78.12	>150 mg/kg	97.56	79.17	0	–
CCC1(OC(=O)COc2ccc(OCc3ccccc3)cc2)C(=O)OCc2c1cc1n(c2=O)Cc2cc3ccccc3nc2-1 (centres unmarked) [Example 000425, Camptothecin-20-O-ester of 4-benzyloxyphenoxyacetic acid]	0	0	99.28	71.61	<150 mg/kg	100	80.46	0	–
CCC1(OC(=O)COc2cccc(CBr)c2)C(=O)OCc2c1cc1n(c2=O)Cc2cc3ccccc3nc2-1 (centres unmarked) [Example 000501, Camptothecin-20-O-ester of 3-bromomethylphenoxyacetic acid]	0	0	96.02	41.77	<150 mg/kg	100	86.60	0	–
CCC1(OC(=O)COc2ccc(Cl)cc2)C(=O)OCc2c1cc1n(c2=O)Cc2cc3ccccc3nc2-1 (centres unmarked) [Example 000517, Camptothecin-20-Oester of 4-chlorophenoxyacetic acid]	0	0	–	–	–	100	–	–	<150
CCC1(OC(=O)COc2ccc(C)cc2)C(=O)OCc2c1cc1n(c2=O)Cc2cc3ccccc3nc2-1 (centres unmarked) [Example 000518, Camptothecin-20-O-ester of 4-methylphenoxyacetic acid]	0	0	–	–	<150 mg/kg	97.31	–	–	–
CCC1(OC(=O)COc2ccc3c(c2)CC[C@@H]2[C@@H]3CC[C@]3(C)C(=O)CC[C@@H]23)C(=O)OCc2c1cc1n(c2=O)Cc2cc3ccccc3nc2-1 (some centres unmarked) [Example 000531, Camptothecin-20-O-ester of estra-1,3,5(10)-trien-17-one-3-oxyacetic acid]	0	0	–	–	–	81.45	–	–	>150
CCC1(OC(=O)COc2c(Cl)cc(F)cc2Cl)C(=O)OCc2c1cc1n(c2=O)Cc2cc3ccccc3nc2-1 (centres unmarked) [Example 000602, Camptothecin-20-O-ester of 2,6-dichloro-4-fluorophenoxyacetic acid]	0	0	–	–	>150 mg/kg	74.00	–	–	–
CCC1(OC(=O)COc2ccc([N+](=O)[O-])c(C(F)(F)F)c2)C(=O)OCc2c1cc1n(c2=O)Cc2cc3ccccc3nc2-1 (centres unmarked) [Example 000605, Camptothecin-20-O-ester of 4-nitro-3-trifuoromethylphenoxyacetic acid]	0	0	–	–	>150 mg/kg	88.00	–	–	–
CC[C@@]1(OC(=O)COc2ccc(C)nc2I)C(=O)OCc2c1cc1n(c2=O)Cc2cc3ccccc3nc2-1 [Example 000616, Camptotheci-20-O-ester of 6-iodo-2-methylpyridine-5-oxyacetic acid]	0	0	–	–	>150 mg/kg	84.85	–	–	–
CCC1(OC(=O)COc2ccc(C(=O)O)cc2)C(=O)OCc2c1cc1n(c2=O)Cc2cc3ccccc3nc2-1 (centres unmarked) [Example 000725, Camptothecin-20-O-ester of 4-carboxyphenoxyacetic acid]	0	0	–	–	>150 mg/kg	100	–	–	–
CC[C@@]1(OC(=O)COc2nc3ccccc3s2)C(=O)OCc2c1cc1n(c2=O)Cc2cc3ccccc3nc2-1 [Example 000727, Camptothecin-20-O-ester of benzothiazole-2-oxyacetic acid]	0	0	–	–	–	96.81	–	–	–
CCC1(OC(=O)COc2ccc(C#N)c(F)c2)C(=O)OCc2c1cc1n(c2=O)Cc2cc3ccccc3nc2-1 (centres unmarked) [Example 001030, Camptothecin-20-O-ester of 4-cyano-3-fluorophenoxyacetic acid]	0	–	–	–	–	86.90	–	–	–
Camptothecin-20-O-ester of ethylexyacetic acid [Example 000627]	0	0	–	–	<150 mg/kg	70.44	–	–	–

From patent USRE39707E1, “Camptothecin derivatives” (Catholic Healthcare West, priority 2001, dated 2007)
